Data: patent US20200010910A1, “Cytotoxic Chemotherapy-Based Predictive Assays for Acute Myeloid Leukemia” (The Regents of The University of California, priority 2017, published 2020)

Legend:
HT1197 = assay: MTT assay IC50, bladder cancer cell line; assay type: cell-based
From the text: (§1) If these diadducts are the predominant DNA lesion responsible for cell death, then the IC50 of the two drugs should be linearly related. Thus, we measured the IC50 of the six NSCLC cell lines from Example 2 to both cisplatin and carboplatin to determine if the sensitivity of these six NSCLC cell lines to the two drugs are correlated. We observed a statistically significant linear correlation of the cytotoxicity of these two drugs in the 6 cell lines used in this study (R^2=0.72, p=0.033, FIG. 9A) and also to six additional ATCC bladder cancer cell lines. (R^2=0.72, p=0.033), FIG. 9B).

J82 = assay: MTT assay IC50, bladder cancer cell line; assay type: cell-based
From the text: as §1

RT4 = assay: MTT assay IC50, bladder cancer cell line; assay type: cell-based
From the text: as §1

T24 = assay: MTT assay IC50, bladder cancer cell line; assay type: cell-based
From the text: as §1

TCCSUP = assay: MTT assay IC50, bladder cancer cell line; assay type: cell-based
From the text: as §1

A549 tumor xenograph = assay: tumor response to therapeutic carboplatin; assay type: in vivo, nude mice; details: resistant A549 xenograph; single IV 37.3 mg/kg; 14 days
From the text: (§2) Xenograft mouse tumors consisting of one carboplatin resistant and one sensitive tumor type were established for in vivo evaluation of carboplatin-DNA monoadduct formation and repair in tumor tissue and for in vivo evaluation of tumor response to therapeutic dosing with carboplatin. Tumor xenografts were established in 1-2 month old nude mice by injecting approximately one million cells into the left and right flanks, and allowed to develop tumors of less than 1 cm^3 over approximately 4 weeks prior to DNA adduct studies. Mice bearing resistant and sensitive tumors were exposed to either a microdose or therapeutic dose of carboplatin by tail vein injection. DNA isolated from tumor tissue was evaluated for carboplatin-DNA monoadduct frequency levels as a function of time. For tumor response, mice bearing resistant and sensitive tumors were therapeutically treated with a single IV injection of 37.3 mg/kg of carboplatin and then examined for tumor growth as assessed by measuring palpable tumors with a caliper and calculating tumor volume.
(§3) Mice xenografted with sensitive (H232A) and resistant (A549) lung cancer cell lines were infused with a therapeutic dose of carboplatin to assess tumor response. The tumors were measured daily over 14 days post infusion (FIG. 10C). Tumor size was normalized as the ratio of tumor diameter to the tumor diameter measured on day 0 (no change=1.0). […]

H23 2A tumor xenograph = assay: tumor response to therapeutic carboplatin; assay type: in vivo, nude mice; details: sensitive H23 2A xenograph; single IV 37.3 mg/kg; 14 days
From the text: as §2, §3

PDX Model BL0293 = assay: drug-DNA adducts in PDX tumor by AMS; assay type: in vivo, NSG mice; details: microdose 0.375 mg/kg carboplatin, 24 h
From the text: (§4) Female NSG mice (5-8 weeks of age, body weight: 20 to 25 g) were obtained from Jackson Laboratories (CA, USA). All animals were kept under pathogen-free conditions and were allowed to acclimatize for at least 4 days prior to any experiments. PDX models bearing the indicated patient derived xenografts were created by subcutaneous injection at the flank of 1 mm^3 tumor tissue. To establish multiple PDXs to allow efficacy studies with multiple drugs, PDXs from passage 2-4 were minced into 1 mm^3 sections and injected subcutaneously into multiple mice. At least 3 mice were used for each treatment group. Tumors were allowed to grow to at about 100 mm^3 before being assessed for drug sensitivity or the induction of DNA adducts by the administration of a microdose or a therapeutic dose of labeled drug. To assess tumor response to chemotherapy, cisplatin was administered at 2 mg/kg IV every 7 days for a total of 3 cycles, or gemcitabine was administered at 150 mg/kg IP every 7 days for a total of 4 cycles. G/C combination chemotherapy consisted of the simultaneous administration of both drugs using the schema described above. Tumor growth was assessed by measuring palpable tumors with a caliper and calculating tumor volume. Drug-DNA adduct frequencies were measured in tumor tissue collected 24 hours after intravenous injection of labeled drug and stored at −80° C. until DNA isolation. DNA was isolated using a modified Wizard procedure (Promega), quantitated by spectrophotometry, and then stored frozen at −20° C. until AMS analysis. Ten micrograms of DNA per sample was converted to graphite and measured by AMS for 14C quantification as previously described.
(§5) NSG mice bearing the indicated PDX tumors were injected with a microdose of ^14C-labeled carboplatin (FIG. 22A) or ^14C-labeled gemcitabine (FIG. 22B). The microdose of ^14C-labeled carboplatin was 0.375 mg/kg carboplatin, 50,000 dpm/g. The microdose of ^14C-labeled gemcitabine was 0.092 mg/kg gemcitabine, 1000 dpm/g. The doses of each drug administered to the mice were chosen to target 1 μM in plasma concentration of carboplatin and 0.3 μM in plasma concentration of gemcitabine. These plasma concentrations represent 1% of the approximate peak plasma concentration during human chemotherapy. Animals were sacrificed after 24 h and drug-DNA adduct frequency was determined from collected tumor tissue by AMS measurements of ^14C in tumor DNA. Carboplatin DNA-adduct levels correlate with PDX model sensitivity to cisplatin at 24 h after microdosing (FIG. 22A). Gemcitabine DNA-adduct levels correlate with PDX model sensitivity to gemcitabine at 24 h after microdosing (FIG. 22B). […] There is no significant difference in carboplatin-DNA monoadduct levels between the three resistant PDX models. […]

PDX Model BL0440 = assay: drug-DNA adducts in PDX tumor by AMS; assay type: in vivo, NSG mice; details: microdose 0.375 mg/kg carboplatin, 24 h
From the text: as §4, §5

[1] = patients; cited from earlier work

For N.N.O=C([O-])C1(C(=O)[O-])CCC1.[Pt+2] [carboplatin], which IC50 (HT1197) is on record?
The IC50 was 84.5 ± 24.6 µM.

What about the IC50 (J82) of the same compound?
The IC50 was 168 ± 19.9 µM.

And the IC50 (RT4)?
The IC50 was 56.9 ± 11.2 µM.

And the IC50 (T24)?
The IC50 was 42.5 ± 6.99 µM.

What about the IC50 (TCCSUP) of the same compound?
Its IC50 is 91.5 ± 6.81 µM.

What about the “tumor response (growth after chemotherapy)” value (A549 tumor xenograph) of the same compound?
Its value is “continued to grow”.

What about the “tumor response (growth after chemotherapy)” value (H23 2A tumor xenograph) of the same compound?
Its value is “did not display any growth”.

What about the “mean carboplatin-DNA monoadduct level” value (PDX Model BL0293) of the same compound?
The value was 1.46±0.520 adducts per 10^8 nucleotides.

And the “mean carboplatin-DNA monoadduct level” value (PDX Model BL0440)?
The value was 2.73±0.661 adducts per 10^8 nucleotides.

What about the “in vivo carboplatin half-life in patients” value [1] of the same compound?
Its value is 1.3 to 6 h.
